From patent US11440907B1 (Merck Patent GmbH, priority 2018, dated 2022)

Key:
[1] = tested on: β-catenin-TCF-mediated reporter transcription activity in Colo 205 cells; experiment: Colo 205 reporter assay (TCF/LEF promoter-driven firefly luciferase); type: cell-based; settings: Homo sapiens; Colo 205 TCF/LEF luciferase reporter, 5 hours after compound addition, 384 well; read-out: Colo205 IC50
[2] = tested on: XBP1(u)-luciferase splicing reporter in HepG2 hepatoma cells; experiment: HepG2 XBP1 reporter assay (XBP1(u)-Luc); type: cell-based; settings: Homo sapiens, 6 hours after compound addition; for EC50: Table 3, read-out: XBP1-luc HepG2 1 EC50; for IC50: Table 4
[3] = tested on: intracellular calcium flux in Colo-205 cells; experiment: Calcium flux assay (FLIPR Calcium 5 Assay Kit, FLIPR3); type: cell-based; settings: Homo sapiens, 0.6 h, calcium flux measured over 36 minutes, read-out: Colo 205 Calcium Flux assay 384w Boston Ca assay FLIPR3 Colo EC50
Protocol: Compounds described herein induced ER stress by causing intracellular calcium flux. Calcium flux was measured in Colo-205 cells using the FLIPR® Calcium 5 Assay Kit according to manufacturer's protocol (Molecular Devices, Cat. #R8186) on a FLIPR3 system (Molecular Devices). Calcium flux is measured over 36 minutes. The Colo-205 calcium flux assay data are summarized in Table 3: A<0.6 μM; 0.6 μM≤B<2.0 μM; 2.0 μM≤C<10.0 μM; D≥10.0 μM.

[4] = tested on: NCI-H929 (Multiple myeloma cells); experiment: Cell viability (ATPLite) in NCI-H929; type: cell-based; settings: Homo sapiens, 96 hours
Procedure, shortened: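 Cells were seeded at 500/well and, after 24 h, treated with compound at 100 nM or 2 uM for 0 or 96 hours. Viability was measured by ATPLite cellular ATP read-out.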

[5] = tested on: DU4475 (breast cancer cells); experiment: Cell viability (ATPLite) in DU4475; type: cell-based; settings: Homo sapiens, DU-4475, 96 hours
Protocol: Cells were removed from liquid nitrogen storage, thawed and expanded in appropriate growth media. Once expanded, cells were seeded in 384-well tissue culture treated plates at 500 cells per well. After 24 hours, cells were treated for either 0 hours or treated for 96 hours with a testing compound (at the concentrations of 100 nM and 2 uM). At the end of either 0 hours or 96 hours, cell status was analyzed using ATPLite (Perkin Elmer) to assess the biological response of cells to the testing compound.

melting point [°C] | IC50 [1] [nM] | Structure (SMILES) | further results
188 to 190 | < 300 | Cc1cc(N2CCCOCC2c2ccc(NC(=O)C(F)F)cc2Cl)nc(N)n1 (racemic) [I-278, (+/−)-N-(4-(4-(2-amino-6-methylpyrimidin-4-yl)-1,4-oxazepan-3-yl)-3-chlorophenyl)-2,2-difluoroacetamide] | EC50 [2]: < 600 nM
110 | 300 to 1000 | Cc1cc(N2CCCOCC2c2cc(C(O)C(F)(F)F)ccc2Cl)nc(N)n1 (racemic) [I-134, (+/−)-1-(3-(4-(2-amino-6-methylpyrimidin-4-yl)-1,4-oxazepan-3-yl)-4-chlorophenyl)-2,2,2-trifluoroethan-1-ol] | –
88 to 90 | 300 to 1000 | COc1ccc(Cl)c(C2CCCCCN2c2cc(C)nc(N)n2)c1 (racemic) [I-117, (+/−)-4-(2-(2-chloro-5-methoxyphenyl)azepan-1-yl)-6-methylpyrimidin-2-amine] | –
220 | – | Cc1cc(N2CCCOC[C@H]2c2ccc(C#N)cc2Cl)nc(N)n1 (single isomer, unassigned) [I-96] | –
107 to 109 | – | COc1cc(C2CCCCCN2c2cc(C)nc(N)n2)c(OC)cn1 (racemic) [I-116, (+/−)-4-[2-(2,5-dimethoxy-4-pyridyl)azepan-1-yl]-6-methyl-pyrimidin-2-amine] | –
95 to 97 | 300 to 1000 | Cc1cc(N2CCCOCC2c2cc(NC(=O)CN(C)C)ccc2Cl)nc(N)n1 (racemic) [I-168, (+/−)-N-[3-[4-(2-amino-6-methyl-pyrimidin-4-yl)-1,4-oxazepan-3-yl]-4-chloro-phenyl]-2-(dimethylamino)acetamide] | –
100 to 102 | 300 to 1000 | Cc1cc(N2CCCOC[C@@H]2c2ccc(Br)cc2Cl)nc(N)n1 (single isomer, unassigned) [I-201] | EC50 [3]: < 600 nM; EC50 [2]: < 600 nM
180 | 300 to 1000 | CCNc1cc(C2COCCCN2c2cc(C)nc(N)n2)c(Cl)cc1F (racemic) [I-272, (+/−)-4-[3-[2-chloro-5-(ethylamino)-4-fluoro-phenyl]-1,4-oxazepan-4-yl]-6-methyl-pyrimidin-2-amine] | EC50 [2]: 600 to 2000 nM
138 to 140 | 300 to 1000 | Cc1cc(N2CCCOCC2c2cc(N3CCCC3=O)ccc2Cl)nc(N)n1 (racemic) [I-119, 1-(3-(4-(2-amino-6-methylpyrimidin-4-yl)-1,4-oxazepan-3-yl)-4-chlorophenyl)pyrrolidin-2-one] | –
220 | 300 to 1000 | COc1ccc(Cl)c(C2COCCCN2c2cc(C)nc(N)n2)c1 (racemic) [I-118, (+/−)-4-(3-(2-chloro-5-methoxyphenyl)-1,4-oxazepan-4-yl)-6-methylpyrimidin-2-amine] | –
120 | – | Cc1cc(N2CCCOC[C@@H]2c2cc(S(C)(=O)=O)ccc2Cl)nc(N)n1 (single isomer, unassigned) [I-103] | –
278 to 280 | – | Cc1cc(N2CCCN(S(C)(=O)=O)CC2c2ccccc2Cl)nc(N)n1 (racemic) [I-28, (+/−)-4-(2-(2-chlorophenyl)-4-(methylsulfonyl)-1,4-diazepan-1-yl)-6-methylpyrimidin-2-amine] | –
156 to 160 | – | Cc1cc(N2CCCOC[C@H]2c2ccccc2Cl)nc(N)n1 (single isomer, unassigned) [I-30] | –
– | – | Cc1cc(N2CCCOC[C@@H]2c2ccc(N3CCC(C)(O)CC3)cc2Cl)nc(N)n1 [C-151] | IC50 [4]: < 1000 nM; IC50 [5]: < 1000 nM; IC50 [2]: < 600 nM
– | – | COc1cc(Cl)c(C2COCCCN2c2cc(C)nc(N)n2)cc1OC(C)C (stereo not shown) [C-39] | IC50 [4]: 1000 to 10000 nM; IC50 [5]: < 1000 nM; IC50 [2]: 600 to 2000 nM
– | – | CCOc1cc(Cl)c(C2COCCCN2c2cc(C)nc(N)n2)cc1Cl (stereo not shown) [C-41] | IC50 [4]: 10000 to 25000 nM; IC50 [5]: < 1000 nM; IC50 [2]: < 600 nM
160 | < 300 | Cc1cc(N2CCCOC[C@@H]2c2cc(NS(C)(=O)=O)ccc2Cl)nc(N)n1 (single isomer, unassigned) [I-161] | EC50 [2]: < 600 nM
